The values below come from BindingDB's records for doi:10.7270/Q2Q52N1X (Vanderbilt Screening Center for GPCRs, Ion Channels and …, 2009).

The term pEC50 denotes the EC50 on a negative log10 scale, so that one unit is a factor of ten.

pEC50: −log10 of the molar value.

One assay deals with T1, Solute carrier family 12 member 5 (Homo sapiens, UniProt Q9H2X9).
T1 sequence (Q9H2X9 whole entry): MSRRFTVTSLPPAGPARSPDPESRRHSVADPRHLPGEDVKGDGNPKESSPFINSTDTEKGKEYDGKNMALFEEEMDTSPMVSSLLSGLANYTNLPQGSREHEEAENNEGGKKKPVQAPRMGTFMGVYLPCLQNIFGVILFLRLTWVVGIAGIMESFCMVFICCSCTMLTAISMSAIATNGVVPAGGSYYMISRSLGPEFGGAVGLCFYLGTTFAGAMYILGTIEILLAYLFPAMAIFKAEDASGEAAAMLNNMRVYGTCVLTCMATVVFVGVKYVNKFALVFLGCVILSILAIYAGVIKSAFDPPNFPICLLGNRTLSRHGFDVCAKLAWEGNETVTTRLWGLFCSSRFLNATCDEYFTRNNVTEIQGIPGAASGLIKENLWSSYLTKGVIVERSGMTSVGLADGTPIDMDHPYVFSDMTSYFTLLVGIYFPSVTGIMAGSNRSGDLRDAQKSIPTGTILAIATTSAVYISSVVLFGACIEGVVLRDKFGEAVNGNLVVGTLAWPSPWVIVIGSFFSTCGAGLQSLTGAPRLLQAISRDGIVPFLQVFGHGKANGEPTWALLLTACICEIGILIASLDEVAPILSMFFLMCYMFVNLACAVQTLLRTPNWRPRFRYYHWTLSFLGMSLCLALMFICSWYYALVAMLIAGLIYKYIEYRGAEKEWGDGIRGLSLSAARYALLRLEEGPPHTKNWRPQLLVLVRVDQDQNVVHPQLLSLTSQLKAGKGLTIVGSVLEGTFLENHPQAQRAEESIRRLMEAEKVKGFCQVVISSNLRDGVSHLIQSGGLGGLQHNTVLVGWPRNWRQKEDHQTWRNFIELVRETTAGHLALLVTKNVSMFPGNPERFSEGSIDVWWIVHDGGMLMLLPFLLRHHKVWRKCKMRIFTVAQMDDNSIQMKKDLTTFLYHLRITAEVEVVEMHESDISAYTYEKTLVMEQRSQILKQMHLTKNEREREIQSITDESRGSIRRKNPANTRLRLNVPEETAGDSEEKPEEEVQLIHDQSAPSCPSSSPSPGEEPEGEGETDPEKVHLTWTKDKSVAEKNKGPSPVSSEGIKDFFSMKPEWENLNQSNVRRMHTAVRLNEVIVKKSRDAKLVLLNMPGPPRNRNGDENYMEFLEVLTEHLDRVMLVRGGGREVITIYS
Description: KCC2 modulator potency by thallium flux, dose response, cell-based, HEK293 KCC2, FluoZin-2 fluorescence (AID 1736).
Settings: not given
The compound `N#Cc1nc(-c2ccco2)oc1N1CCN(Cc2ccccc2)CC1` [2-(2-furanyl)-5-[4-(phenylmethyl)-1-piperazinyl]-4-oxazolecarbonitrile] gave a negative logarithm of the EC50 (pEC50) of 5.34.
For `CCc1ccc(C(=O)COC(=O)c2cc([N+](=O)[O-])ccc2NCCO)cc1` [2-(2-hydroxyethylamino)-5-nitro-benzoic acid [2-(4-ethylphenyl)-2-keto-ethyl] ester], the negative-log EC50 (pEC50) is 5.26.
In turn, `O=C(COC(=O)c1cc([N+](=O)[O-])ccc1NCCO)c1ccccc1` [2-(2-hydroxyethylamino)-5-nitro-benzoic acid phenacyl ester] showed a negative-log EC50 (pEC50) of 4.38.
Turning to `O=C(Cn1nc2ccccc2n1)NN=Cc1cc(Cl)cc([N+](=O)[O-])c1O` [2-(2H-1,2,3-benzotriazol-2-yl)-N'-{5-chloro-2-hydroxy-3-nitrobenzylidene}acetohydrazide], the negative logarithm of the EC50 (pEC50) was 4.55.
The same measure, in the same setting: as for `Cc1cc(C)c(C#N)c(N2CCN(Cc3ccccc3)CC2)n1` [2-(4-benzyl-1-piperazinyl)-4,6-dimethylnicotinonitrile], the figure is 4.71.
`O=C(Cn1nc(-c2ccccc2)ccc1=O)NCc1ccc2c(c1)OCO2` [2-(6-keto-3-phenyl-pyridazin-1-yl)-N-piperonyl-acetamide] showed a pEC50 of 5.88.
Consider `O=C(Cn1cnc2c(nnn2-c2ccccc2)c1=O)NCCc1ccccc1` [2-(7-keto-3-phenyl-triazolo[4,5-d]pyrimidin-6-yl)-N-phenethyl-acetamide], for which the negative logarithm of the EC50 (pEC50) is 5.93.
As for `O=C(COC(=O)c1cc([N+](=O)[O-])ccc1NCc1ccccc1)NC1CCCCC1` [2-(benzylamino)-5-nitro-benzoic acid [2-(cyclohexylamino)-2-keto-ethyl] ester], the pEC50 is 5.34.
For the compound `O=C(O)c1cc([N+](=O)[O-])ccc1NCc1ccccc1` [2-(benzylamino)-5-nitro-benzoic acid], the pEC50 was 5.30.
On to `O=[N+]([O-])c1ccc(CSc2nnc(SCc3ccccc3)s2)cc1` [2-(benzylthio)-5-[(4-nitrobenzyl)thio]-1,3,4-thiadiazole], for which the pEC50 is 4.95.
Still for that read-out and setting: the result for `O=c1c2ccccc2c(-c2nnc(S)o2)nn1Cc1ccccc1` [2-(phenylmethyl)-4-(2-sulfanylidene-3H-1,3,4-oxadiazol-5-yl)-1-phthalazinone] reads 5.49.
With `COc1ccc(S(=O)(=O)N2CCC(C(=O)N3CCc4ccccc4C3)CC2)cc1C` [2-({1-[(4-methoxy-3-methylphenyl)sulfonyl]-4-piperidinyl}carbonyl)-1,2,3,4-tetrahydroisoquinoline], the pEC50 was 4.84.
With `Cn1nccc1C(=O)OCC(=O)Nc1nc(-c2ccccc2)cs1` [2-Methyl-2H-pyrazole-3-carboxylic acid (4-phenyl-thiazol-2-ylcarbamoyl)-methyl ester], the pEC50 was 4.96.
Same read-out and setting: the result for `COc1ccc(OC)c(-n2nnnc2SCC(=O)NCCc2ccccc2)c1` [2-[1-(2,5-Dimethoxy-phenyl)-1H-tetrazol-5-ylsulfanyl]-N-phenethyl-acetamide] reads 3.62.
The compound `O=C(CSc1nnnn1-c1ccc(Cl)cc1)N1CCc2ccccc2C1` [2-[1-(4-chlorophenyl)tetrazol-5-yl]sulfanyl-1-(3,4-dihydro-1H-isoquinolin-2-yl)ethanone] had a negative-log EC50 (pEC50) of 5.49.
Still for that read-out and setting: the result for `O=C1Nc2ccc([N+](=O)[O-])cc2OC1CCN1CCN(Cc2ccccc2)CC1` (configuration not stated) [2-[2-(4-benzylpiperazin-1-yl)ethyl]-7-nitro-4H-1,4-benzoxazin-3-one] reads 4.82; that for `NC(=O)COc1ccccc1/C=C1/SC(=O)N(CC(=O)N2CCc3ccccc3C2)C1=O` [2-[2-({3-[2-(3,4-dihydro-2(1H)-isoquinolinyl)-2-oxoethyl]-2,4-dioxo-1,3-thiazolidin-5-ylidene}methyl)phenoxy]acetamide], 4.78; that for `CCc1ccc(Nc2nnc(SCC(=O)Nc3sccc3C(N)=O)s2)cc1` [2-[2-[[5-[(4-ethylphenyl)amino]-1,3,4-thiadiazol-2-yl]sulfanyl]ethanoylamino]thiophene-3-carboxamide], 5.22.
`O=C(Cn1cnc2c(nnn2Cc2ccc(F)cc2)c1=O)NCc1ccc2c(c1)OCO2` [2-[3-(4-fluorobenzyl)-7-keto-triazolo[4,5-d]pyrimidin-6-yl]-N-piperonyl-acetamide] had a negative-log EC50 (pEC50) of 5.58.
Take `O=[N+]([O-])c1cc(-n2c(O)c3c(c2O)CCCC3)ccc1NC1CCN(Cc2ccccc2)CC1` [2-[3-nitro-4-[[1-(phenylmethyl)-4-piperidinyl]amino]phenyl]-3a,4,5,6,7,7a-hexahydroisoindole-1,3-dione]: the pEC50 is 5.26.
In turn, `O=C(CSc1nnc(-c2ccc(F)cc2)o1)N1CCN(C(=O)c2ccco2)CC1` [2-[5-(4-Fluoro-phenyl)-[1,3,4]oxadiazol-2-ylsulfanyl]-1-[4-(furan-2-carbonyl)-piperazin-1-yl]-ethanone] gave a pEC50 of 4.75.
Consider `CC1CCCCN1C(=O)CSc1ccc(-c2ccc(F)cc2)nn1` (configuration not stated) [2-[6-(4-Fluoro-phenyl)-pyridazin-3-ylsulfanyl]-1-(2-methyl-piperidin-1-yl)-ethanone], for which the pEC50 was 2.09.
`CC1CCN(C(=O)CSc2ccc(-c3ccc(F)cc3)nn2)CC1` [2-[6-(4-Fluoro-phenyl)-pyridazin-3-ylsulfanyl]-1-(4-methyl-piperidin-1-yl)-ethanone] showed a pEC50 of 5.51.
`Cc1cc(NC(=O)CSc2ccc(-c3ccc(F)cc3)nn2)no1` [2-[6-(4-fluorophenyl)pyridazin-3-yl]sulfanyl-N-(5-methyl-1,2-oxazol-3-yl)acetamide] had a negative logarithm of the EC50 (pEC50) of 6.74.
`CCC(Cc1ccccc1)NC(=O)CN(C)S(=O)(=O)c1ccc2c(c1)c(=O)n(C)c(=O)n2C` (configuration not stated) [2-[(1,3-dimethyl-2,4-dioxo-6-quinazolinyl)sulfonyl-methylamino]-N-(1-phenylbutan-2-yl)acetamide]: the pEC50 is 2.62.
In turn, `Cn1c(SCc2ccccc2Cl)nc2ccccc21` [2-[(2-chlorobenzyl)thio]-1-methyl-1H-benzimidazole] had a pEC50 of 5.40.
`Cc1[nH]c2ccccc2c1SCC(=O)N1CCN(c2ccccc2)CC1` [2-[(2-methyl-1H-indol-3-yl)thio]-1-(4-phenyl-1-piperazinyl)ethanone] had a negative-log EC50 (pEC50) of 4.06.
`Cc1ccc(/C=C2/Sc3ccccc3N(CC(=O)NCCCOC(C)C)C2=O)cc1` [2-[(2E)-2-[(4-methylphenyl)methylidene]-3-oxidanylidene-1,4-benzothiazin-4-yl]-N-(3-propan-2-yloxypropyl)ethanamide] showed a negative logarithm of the EC50 (pEC50) of 3.56.
As for `COc1ccc(S(=O)(=O)N(CCc2ccccc2)CC(=O)O)cc1Cl` [2-[(3-chloranyl-4-methoxy-phenyl)sulfonyl-(2-phenylethyl)amino]ethanoic acid], the pEC50 was 5.42.
The compound `O=C(NCCOc1ccccc1F)c1ccccc1SCc1ccc(F)cc1` [2-[(4-fluorobenzyl)thio]-N-[2-(2-fluorophenoxy)ethyl]benzamide] had a negative-log EC50 (pEC50) of 6.50.
In turn, `Cc1ccc(NC(=O)c2ccccc2NS(=O)(=O)c2ccc(Cl)s2)cc1` [2-[(5-chloranylthiophen-2-yl)sulfonylamino]-N-(4-methylphenyl)benzamide] showed a pEC50 of 5.79.
For the compound `N#Cc1c(NC(=O)CSc2nc(N)cc(=O)[nH]2)sc2c1CCCCCC2` [2-[(6-amino-4-oxo-1H-pyrimidin-2-yl)sulfanyl]-N-(3-cyano-4,5,6,7,8,9-hexahydrocycloocta[b]thiophen-2-yl)acetamide], the pEC50 is 6.34.

Still in this assay, the particulars now being: inactive by the depositor's call.
As for `O=C(CN1C(=O)NC(Cc2ccccc2)C1=O)NC(=O)NC1CCCCC1` (configuration not stated) [2-(4-benzyl-2,5-diketo-imidazolidin-1-yl)-N-(cyclohexylcarbamoyl)acetamide], the pEC50 was 4.16.
Still for that read-out and setting: the result for `Cc1cccc(N2CCN(C(=O)Cn3ccc4ccccc4c3=O)CC2)c1C` [2-[2-[4-(2,3-dimethylphenyl)-1-piperazinyl]-2-oxoethyl]-1-isoquinolinone] reads 3.59; that for `O=C(Cn1cnc2c(nnn2Cc2ccc(F)cc2)c1=O)NCc1ccco1` [2-[3-(4-fluorobenzyl)-7-keto-triazolo[4,5-d]pyrimidin-6-yl]-N-(2-furfuryl)acetamide], 4.31; that for `CCCCC(c1nnnn1Cc1ccco1)N1CCN(c2nc3ccccc3s2)CC1` (configuration not stated) [2-[4-[1-[1-(2-furanylmethyl)-5-tetrazolyl]pentyl]-1-piperazinyl]-1,3-benzothiazole], 5.04.
Take `C=CCNC(=O)NC(=O)CSc1nc2cc([N+](=O)[O-])ccc2n1-c1cccc(C(F)(F)F)c1` [2-[5-nitro-1-[3-(trifluoromethyl)phenyl]benzimidazol-2-yl]sulfanyl-N-(prop-2-enylcarbamoyl)acetamide]: the pEC50 is 4.72.
